# Measurements as given in patent publication US5494932A, “Sulfonic stilbene derivatives in the treatment of viral disease” (Merrell Dow Pharmaceuticals Inc., priority 1991, dated 1996).
# Several values for one entry are separate records, joined by “and”; a condition that tells them apart may be missing. Equal values may be shown once. Read-outs that look alike come from different tables or passages of the source.
# How the values were obtained:
# [1] = system: virus-induced cell fusion (gp120-CD4 dependent); assay: Anti-syncytial cocultivation assay: H9 cells chronically infected with HIV-1 RF mixed with uninfected C8166 cells; assay type: cell-based, HIV-1 RF; human H9 and C8166 cells; conditions: 200 μg/ml; Panel C
# [2] = system: HIV-1; assay: Back titration of cell-free supernatants (infectivity) on fresh uninfected JM cells; assay type: cell-based, HIV-1 (human T cell line JM); conditions: for viral infectivity in the cell-free supernatants: data not shown
# Procedure: Protocol: JM cells were infected with HIV-1 to give a multiplicity of infection of 0.001. Virus adsorption was for 2 hours at room temperature. The cells were washed and distributed into wells containing different concentrations of test compounds and incubated. After 2 days the cells were observed and syncytia were counted. The cell-free supernatant fluids were harvested at 4 and 6 days post infection and assayed for levels of p24 viral core antigen and after 6 days the supernatants were also titrated to determine levels of infectivity.
# *Syncytia-forming unit; cellfree supernatants from virus infected cells
# having received the indicated concentration of compounds were incubated
# with fresh uninfected JM cells and syncytia were scored to determine the
# number of infectious units/ml.
# supernatants from virusinfected control cells not having received drug
# [3] = system: HIV-1 infected JM cells; assay: Treatment of HIV-1 infected JM cells with DIDS, SITS and ddC; assay type: cell-based, HIV-1 (human T cell line JM)
# Procedure: Protocol: JM cells were infected with HIV to give approximately 100 syncytia after 3 days. Virus adsorption was at room temperature for 2 hours. The cells were then washed thoroughly and distributed in wells of a tissue culture plate at a concentration of 1×10^5 cells/well. At 24 hours post infection either DIDS (100 μg/ml), SITS (100 μg/ml), or ddC (5 μM) were added to wells having infected cells. As virus controls, some wells had no drug added. At 42 hours post infection other wells received either ddC (5 μM), SITS (100 μg/ml), or DIDS (100, 50, 25, 12.5, 6.25 μg/ml). Syncytia were scored at 3 and 4 days post-infection and the supernatant fluids were harvested after 3 and 4 days for p24 core antigen determination.
# [4] = system: MT-4 cells; assay: Cytotoxicity in MT-4 cells, tetrazolium reduction assay; assay type: cell-based, human
# [5] = system: HCMV; assay: Plaque reduction assay, HCMV; assay type: cell-based
# Procedure: Protocol: Plaque reduction assay. Treatment after adsorption during incubation.
# [6] = system: virus-induced cell fusion (gp120-CD4 dependent); assay: Anti-syncytial cocultivation assay: H9 cells chronically infected with HIV-1 RF mixed with uninfected C8166 cells; assay type: cell-based, HIV-1 RF; human H9 and C8166 cells; conditions: for Syncytia after 2 hrs: virus control ++; for Syncytia after 3 1/2 hrs / Syncytia after 5 1/2 hrs: virus control +++
# Excerpt: Syncytial cell formation depends on the interaction of gp120, expressed in the membranes of infected cells, with the CD4 antigen on neighboring cells (Camerini and Seed, 1990). We utilized a cell cocultivation model to examine the effect of the stilbene disulfonic acids on the gp120-CD4 dependent fusion process. This system consists of mixing H9 cells chronically infected with HIV-1 RF (gp120^+ cells) with uninfected C8166 cells (CD4^+ cells) as the fusion indicator. In this assay, cell fusion occurred within 2 to 3 hours of mixing at 37° C. and substantial syncytia were observed after a further 3 to 4 hours (FIG. 1, Panel A). […] These findings with the sulfated polysaccharides were consistent with a previous report (Montefiori et al., 1990).
# The effect of the stilbene disulfonic acids and various sulfated polysaccharides on virus-induced cell fusion. In this assay, 10^5 H9 cells, chronically infected with the HIV-1 strain RF, were cocultured with 10^5 uninfected C8166 cells in the absence and presence of the test compounds. FIG. 1A: Positive control, no compound addition; FIG. 1B: 100 μg/ml DIDS; FIG. 1C: 100 μg/ml SITS; FIG. 1D: positive control; FIG. 1E: 10 μg/ml 500,000 MW dextran sulfate; FIG. 1F: 250 μg/ml heparin.
# CD4^+ uninfected C8166 cells were seeded into 24-well trays ([…]) that contained growth medium and various concentrations of test compounds. H9 cells, chronically infected with the RF strain of HIV-1, were washed and then added as a source of gp120^+ cells at 10^5 cells/well except for the noncytopathic control: those wells received uninfected H9 cells. The trays were then incubated at 37° C. and the cocultures were observed between 1 and 6 hours p.i. Syncytia were recorded on photographic film.
# Protocol: H9 cells chronically infected with RF strain of HIV-1 and uninfected C8166 cells were mixed in the presence of either DIDS, SITS, H2 DIDS, dextran sulfate, or heparin (100 μg/ml). The cells were observed after 2, 31/2 and 51/2 hours and the amount of cell fusion quantified.
# Protocol: H9 cells chronically inected with HIV-1 and uninfected C8166 cells were mixed in the presence of either DIDS, SITS, H2 DIDS, dextran sulfate, heparin (at 100 μg/ml), OKT4 or OKT4A (at a 1/50 dilution). The cells were observed after 4 hours and the amount of cell fusion quantitied. OKT4 and OKT4A are monoclonal antibodies that bined the CD4 cell surface antigen.
structure (smiles),measurement,setting,value
"CC(=O)Nc1ccc(C=Cc2ccc(N=C=S)cc2S(=O)(=O)O)c(S(=O)(=O)O)c1 [SITS, 4-acetamido-4'-isothiocyanatostilbene-2,2'-disulfonic acid]",cell fusion / syncytia,[1],had no effect
same,Back titration of cell-free supernatants at 6 days p.i.,[2]; 25 μg/ml,1.9 × 10^3 SFUs/ml and 2.5 × 10^3 SFUs/ml
same,Back titration of cell-free supernatants at 6 days p.i.,[2]; 100 μg/ml,< 10^1 SFUs/ml
same,viral infectivity in the cell-free supernatants,[2],absence of viral infectivity
same,Mean syncytia/well 3 days p.i.,"[3]; 100 μg/ml, added 24 hr",As VC
same,Mean syncytia/well 4 days p.i.,"[3]; 100 μg/ml, added 24 hr",As VC
same,p24 antigen 3 days p.i.,"[3]; 100 μg/ml, added 24 hr",18000 pg/mL
same,p24 antigen 4 days p.i.,"[3]; 100 μg/ml, added 24 hr",62500 pg/mL
same,Mean syncytia/well 3 days p.i.,"[3]; 100 μg/ml, added 42 hr",As VC
same,Mean syncytia/well 4 days p.i.,"[3]; 100 μg/ml, added 42 hr",As VC
same,p24 antigen 3 days p.i.,"[3]; 100 μg/ml, added 42 hr",7000 pg/mL
same,p24 antigen 4 days p.i.,"[3]; 100 μg/ml, added 42 hr",95000 pg/mL
same,activity at 100 µg/mL,"[3]; Human immunodeficiency virus 1, 72 h, read-out: p24 antigen 3 days p.i., % control, 100 μg/ml, added 24 hr",38%
same,activity at 100 µg/mL,"[3]; Human immunodeficiency virus 1, 72 h, read-out: p24 antigen 3 days p.i., % control, 100 μg/ml, added 42 hr",15%
same,activity at 100 µg/mL,"[3]; Human immunodeficiency virus 1, 96 h, read-out: p24 antigen 4 days p.i., % control, 100 μg/ml, added 24 hr",70%
same,activity at 100 µg/mL,"[3]; Human immunodeficiency virus 1, 96 h, read-out: p24 antigen 4 days p.i., % control, 100 μg/ml, added 42 hr",> 100%
"O=S(=O)(O)c1cc(N=C=S)ccc1C=Cc1ccc(N=C=S)cc1S(=O)(=O)O [DIDS, 4,4'-diisothiocyanatostilbene-2,2'-disulfonic acid]",cytotoxicity at antiviral concentrations,[4],noncytotoxic
same,Plaque counts,"[5]; 1 μg/ml, first count",15
same,Plaque counts,"[5]; 1 μg/ml, second count",14
same,Plaque counts,"[5]; 10 μg/ml, first count",16
same,Plaque counts,"[5]; 10 μg/ml, second count",12
same,Plaque counts,"[5]; 10 μg/ml, third count",11
same,Plaque counts,"[5]; 100 μg/ml, first count",3
same,Plaque counts,"[5]; 100 μg/ml, second count",4
same,Plaque counts,"[5]; 100 μg/ml, third count",3
same,Plaque counts,"[5]; 1000 μg/ml, first count",0
same,Plaque counts,"[5]; 1000 μg/ml, second count",0
same,Plaque counts,"[5]; 1000 μg/ml, third count",0
same,activity at 1 µg/mL,"[5]; Human betaherpesvirus 5, 1 μg/ml, read-out: Mean % VC (plaques)",49%
same,activity at 10 µg/mL,"[5]; Human betaherpesvirus 5, 10 μg/ml, read-out: Mean % VC (plaques)",43%
same,activity at 100 µg/mL,"[5]; Human betaherpesvirus 5, 100 μg/ml, read-out: Mean % VC (plaques)",10%
same,activity at 1000 µg/mL,"[5]; Human betaherpesvirus 5, 1000 μg/ml, read-out: Mean % VC (plaques)",0%
same,cell fusion / syncytia,"[6]; 100 μg/ml, at the time of cell mixing",completely prevented cell fusion
same,Syncytia after 2 hrs,[6]; 100 μg/ml,0
same,Syncytia after 3 1/2 hrs,[6]; 100 μg/ml,0
same,Syncytia after 5 1/2 hrs,[6]; 100 μg/ml,0
same,protection of C8166 cells,"[6]; 200 μg/ml, 5 days post-mixing, not shown",totally protected the C8166 cells
same,blocking virus-induced cell fusion and death,[6]; summary statement,siginificant antiviral activity
same,Back titration of cell-free supernatants at 6 days p.i.,[2]; 12.5 μg/ml,2.4 × 10^3 SFUs/ml
same,Back titration of cell-free supernatants at 6 days p.i.,[2]; 50 μg/ml,< 10^1 SFUs/ml
same,Back titration of cell-free supernatants at 6 days p.i.,[2]; 100 μg/ml,< 10^1 SFUs/ml
same,viral infectivity in the cell-free supernatants,[2],absence of viral infectivity
same,Mean syncytia/well 3 days p.i.,"[3]; 6 μg/ml, added 42 hr",As VC
same,Mean syncytia/well 4 days p.i.,"[3]; 6 μg/ml, added 42 hr",As VC
same,p24 antigen 3 days p.i.,"[3]; 6 μg/ml, added 42 hr",18000 pg/mL
same,p24 antigen 4 days p.i.,"[3]; 6 μg/ml, added 42 hr",34000 pg/mL
same,Mean syncytia/well 3 days p.i.,"[3]; 12 μg/ml, added 42 hr",As VC
same,Mean syncytia/well 4 days p.i.,"[3]; 12 μg/ml, added 42 hr",As VC
same,p24 antigen 3 days p.i.,"[3]; 12 μg/ml, added 42 hr",210000 pg/mL
same,p24 antigen 4 days p.i.,"[3]; 12 μg/ml, added 42 hr",390000 pg/mL
same,Mean syncytia/well 3 days p.i.,"[3]; 25 μg/ml, added 42 hr",As VC
same,Mean syncytia/well 4 days p.i.,"[3]; 25 μg/ml, added 42 hr",As VC
same,p24 antigen 3 days p.i.,"[3]; 25 μg/ml, added 42 hr",15000 pg/mL
same,p24 antigen 4 days p.i.,"[3]; 25 μg/ml, added 42 hr",59000 pg/mL
same,Mean syncytia/well 3 days p.i.,"[3]; 50 μg/ml, added 42 hr",> 80
same,Mean syncytia/well 4 days p.i.,"[3]; 50 μg/ml, added 42 hr",100
same,p24 antigen 3 days p.i.,"[3]; 50 μg/ml, added 42 hr",19200 pg/mL
same,p24 antigen 4 days p.i.,"[3]; 50 μg/ml, added 42 hr",63000 pg/mL
same,Mean syncytia/well 3 days p.i.,"[3]; 100 μg/ml, added 24 hr",0
same,Mean syncytia/well 4 days p.i.,"[3]; 100 μg/ml, added 24 hr",20
same,p24 antigen 3 days p.i.,"[3]; 100 μg/ml, added 24 hr",6100 pg/mL
same,p24 antigen 4 days p.i.,"[3]; 100 μg/ml, added 24 hr",15800 pg/mL
same,Mean syncytia/well 3 days p.i.,"[3]; 100 μg/ml, added 42 hr",34
same,Mean syncytia/well 4 days p.i.,"[3]; 100 μg/ml, added 42 hr",70
same,p24 antigen 3 days p.i.,"[3]; 100 μg/ml, added 42 hr",19800 pg/mL
same,p24 antigen 4 days p.i.,"[3]; 100 μg/ml, added 42 hr",20900 pg/mL
same,activity at 6 µg/mL,"[3]; Human immunodeficiency virus 1, 72 h, 6 μg/ml, added 42 hr, read-out: p24 antigen 3 days p.i., % control",38%
same,activity at 12 µg/mL,"[3]; Human immunodeficiency virus 1, 72 h, 12 μg/ml, added 42 hr, read-out: p24 antigen 3 days p.i., % control",> 100%
same,activity at 25 µg/mL,"[3]; Human immunodeficiency virus 1, 72 h, 25 μg/ml, added 42 hr, read-out: p24 antigen 3 days p.i., % control",32%
same,activity at 50 µg/mL,"[3]; Human immunodeficiency virus 1, 72 h, 50 μg/ml, added 42 hr, read-out: p24 antigen 3 days p.i., % control",41%
same,activity at 100 µg/mL,"[3]; Human immunodeficiency virus 1, 72 h, 100 μg/ml, added 24 hr, read-out: p24 antigen 3 days p.i., % control",13%
same,activity at 100 µg/mL,"[3]; Human immunodeficiency virus 1, 72 h, 100 μg/ml, added 42 hr, read-out: p24 antigen 3 days p.i., % control",42%
same,activity at 6 µg/mL,"[3]; Human immunodeficiency virus 1, 96 h, 6 μg/ml, added 42 hr, read-out: p24 antigen 4 days p.i., % control",38%
same,activity at 12 µg/mL,"[3]; Human immunodeficiency virus 1, 96 h, 12 μg/ml, added 42 hr, read-out: p24 antigen 4 days p.i., % control",44%
same,activity at 25 µg/mL,"[3]; Human immunodeficiency virus 1, 96 h, 25 μg/ml, added 42 hr, read-out: p24 antigen 4 days p.i., % control",66%
same,activity at 50 µg/mL,"[3]; Human immunodeficiency virus 1, 96 h, 50 μg/ml, added 42 hr, read-out: p24 antigen 4 days p.i., % control",70%
same,activity at 100 µg/mL,"[3]; Human immunodeficiency virus 1, 96 h, 100 μg/ml, added 24 hr, read-out: p24 antigen 4 days p.i., % control",18%
same,activity at 100 µg/mL,"[3]; Human immunodeficiency virus 1, 96 h, 100 μg/ml, added 42 hr, read-out: p24 antigen 4 days p.i., % control",23%
"O=S(=O)(O)c1cc(N=C=S)ccc1CCc1ccc(N=C=S)cc1S(=O)(=O)O [H2 DIDS, 4,4'-diisothiocyanatodihydrostilbene-2,2'-disulfonic acid]",cytotoxicity at antiviral concentrations,[4],noncytotoxic
same,Syncytia after 2 hrs,[6]; 100 μg/ml,0
same,Syncytia after 3 1/2 hrs,[6]; 100 μg/ml,0
same,Syncytia after 5 1/2 hrs,[6]; 100 μg/ml,0
